Assay results as given in the supplement of paper PMC10883282.
± gives the standard deviation of the averaged measurements.

Tested on: KHOS-NP
Assay: relative viability vs DMSO control (72 h) (fraction); higher = more viable cells
Summary of the method: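 Plates held 72 h at 37 °C and 5% CO2 contained sarcoma cell lines seeded in 384-well format to reach 80–90% confluence, plus 2.5 µl of serially diluted compound added after 24 h. Source plate concentrations ran from 10 mM to 0.0002 mM, with 0.1% DMSO as vehicle and a 5 µM positive control. Percent growth from ATPLite readings, averaged over up to triplicate wells, gave relative viability. Values were rescaled with 1 as full and 0 as none.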

SMILES | relative viability (0.00017 µM) | relative viability (0.00051 µM) | relative viability (0.00152 µM) | relative viability (0.00457 µM) | relative viability (0.01372 µM) | relative viability (0.04115 µM) | relative viability (0.1235 µM) | relative viability (0.3704 µM) | relative viability (1.111 µM) | relative viability (3.333 µM) | relative viability (10 µM)
CC(C)N1CCN(Cc2cnc(-c3cc(-c4cccc5[nH]ccc45)cc4[nH]ncc34)o2)CC1 [Nemiralisib] | 1.01 ± 0.024 | 1.02 ± 0.024 | 1.02 ± 0.029 | 1.01 ± 0.03 | 1.01 ± 0.026 | 1.02 ± 0.013 | 1.02 ± 0.021 | 1.03 ± 0.018 | 1.04 ± 0.038 | 1.03 ± 0.038 | 1.01 ± 0.034
C=CC(=O)N1CCC[C@@H](n2nc(-c3ccc(Oc4ccccc4)cc3)c3c(N)ncnc32)C1 [Ibrutinib] | 1.08 ± 0.025 | 1.086 ± 0.0071 | 1.08 ± 0.025 | 1.07 ± 0.013 | 1.05 ± 0.032 | 1.04 ± 0.014 | 1.05 ± 0.015 | 1.01 ± 0.045 | 1.034 ± 0.01 | 1.03 ± 0.043 | 0.995 ± 0.043
CN1CCC(COc2cnc(-c3cccc(Cn4nc(-c5cccc(C#N)c5)ccc4=O)c3)nc2)CC1 [Tepotinib] | 1.09 ± 0.054 | 1.11 ± 0.024 | 1.11 ± 0.012 | 1.09 ± 0.013 | 1.08 ± 0.012 | 1.08 ± 0.026 | 1.07 ± 0.015 | 1.03 ± 0.023 | 1.01 ± 0.023 | 0.995 ± 0.021 | 0.975 ± 0.014
C[C@@H]1CCN(C(=O)CC#N)C[C@@H]1N(C)c1ncnc2[nH]ccc12 [Tofacitinib] | 1.08 ± 0.037 | 1.092 ± 0.01 | 1.08 ± 0.031 | 1.09 ± 0.036 | 1.05 ± 0.034 | 1.07 ± 0.053 | 1.06 ± 0.049 | 1.05 ± 0.029 | 1.03 ± 0.011 | 1.02 ± 0.051 | 0.941 ± 0.015
Cc1cc(Nc2ncnc3ccc(NC4=NC(C)(C)CO4)cc23)ccc1Oc1ccn2ncnc2c1 [Tucatinib] | 1.09 ± 0.023 | 1.14 ± 0.021 | 1.13 ± 0.014 | 1.11 ± 0.029 | 1.09 ± 0.018 | 1.09 ± 0.025 | 1.12 ± 0.017 | 1.1 ± 0.017 | 1.12 ± 0.016 | 1.09 ± 0.02 | 1.11 ± 0.014
O=C(Nc1cnn2ccc(N3CCC[C@@H]3c3cc(F)ccc3F)nc12)N1CC[C@H](O)C1 [Larotrectinib] | 1.1 ± 0.025 | 1.09 ± 0.013 | 1.08 ± 0.016 | 1.09 ± 0.024 | 1.1 ± 0.016 | 1.06 ± 0.03 | 1.05 ± 0.053 | 1.08 ± 0.021 | 1.05 ± 0.027 | 1.02 ± 0.014 | 1.01 ± 0.038
C=CC(=O)N1CCC([C@@H]2CCNc3c(C(N)=O)c(-c4ccc(Oc5ccccc5)cc4)nn32)CC1 [Zanubrutinib] | 1.01 ± 0.015 | 1.03 ± 0.024 | 1.03 ± 0.032 | 1.01 ± 0.015 | 1.041 ± 0.0094 | 1.05 ± 0.018 | 1.01 ± 0.013 | 1.04 ± 0.015 | 1.02 ± 0.023 | 1.01 ± 0.029 | 1.05 ± 0.03
CO[C@H]1C[C@@H]2CC[C@@H](C)[C@@](O)(O2)C(=O)C(=O)N2CCCC[C@H]2C(=O)O[C@H]([C@H](C)C[C@@H]2CC[C@@H](OP(C)(C)=O)[C@H](OC)C2)CC(=O)[C@H](C)/C=C(\C)[C@@H](O)[C@@H](OC)C(=O)[C@H](C)C[C@H](C)/C=C/C=C/C=C/1C [Ridaforolimus] | 1.11 ± 0.033 | 1.1 ± 0.011 | 1.09 ± 0.015 | 1.1 ± 0.016 | 1.08 ± 0.03 | 1.08 ± 0.033 | 1.07 ± 0.033 | 1.06 ± 0.045 | 1.07 ± 0.026 | 1.02 ± 0.032 | 1.01 ± 0.02
COc1cc2/c(=N/c3ccc(Br)cc3F)nc[nH]c2cc1OCC1CCN(C)CC1 [Vandetanib] | 1.05 ± 0.032 | 1.036 ± 0.0034 | 1.04 ± 0.014 | 1.05 ± 0.018 | 1.05 ± 0.045 | 1.04 ± 0.029 | 1.05 ± 0.024 | 1.03 ± 0.015 | 1.02 ± 0.017 | 0.888 ± 0.044 | 0.551 ± 0.023
CCc1cc2c(cc1N1CCC(N3CCOCC3)CC1)C(C)(C)c1[nH]c3cc(C#N)ccc3c1C2=O [Alectinib] | 1.07 ± 0.032 | 1.09 ± 0.031 | 1.082 ± 0.0076 | 1.08 ± 0.011 | 1.08 ± 0.013 | 1.089 ± 0.0044 | 1.09 ± 0.021 | 1.074 ± 0.0034 | 1.06 ± 0.026 | 1.05 ± 0.01 | 1.04 ± 0.044
Cc1nc(-c2cn3c(n2)-c2ccc(-c4cnn(C(C)(C)C(N)=O)c4)cc2OCC3)n(C(C)C)n1 [Taselisib] | 1.04 ± 0.023 | 1.039 ± 0.003 | 1.03 ± 0.03 | 1.02 ± 0.018 | 1.042 ± 0.0077 | 1.01 ± 0.023 | 1.02 ± 0.02 | 1.03 ± 0.022 | 0.99 ± 0.035 | 0.948 ± 0.011 | 0.688 ± 0.0095
O=C(Cc1ccc(-c2ccc(OCCN3CCOCC3)cc2)cn1)NCc1ccccc1 [KX2-391] | 1.106 ± 0.0028 | 1.11 ± 0.033 | 1.11 ± 0.031 | 1.11 ± 0.036 | 1.09 ± 0.03 | 1.039 ± 0.01 | 0.586 ± 0.013 | 0.456 ± 0.026 | 0.378 ± 0.0089 | 0.376 ± 0.0087 | 0.364 ± 0.028
